Test results reported in patent US9168301B2 (NATIONAL TSING HUA UNIVERSITY, priority 2011, dated 2015).
Where two headings read alike, the source gives them in different places.

Assays:
[1] = injection dose 60 mg of 10B stable isotope per kilogram of human body weight; cited from earlier work
[2] = Method: The serum biochemical parameters of the rats were monitored by drawing blood samples from the rats' tail veins once before the tumor implantation, and weekly after the tumor implantation. When a rat was sacrificed, a blood sample was also drawn from its heart. Whole blood was collected from a rat and held in a serum separation tube (Vacationer, Franklin Lakes, N.J., USA), then centrifuged for 15 minutes at 3000 rpm, followed by preserving the serum upper clean solution by freezing. Afterwards, the College of Veterinary Medicine of National Chung Hsing University was commissioned with the task of analyzing the serum biochemical parameters of this solution, in which a serum biochemical analyzer (Chiron Diagnostics Corporation, Oberlin, Ohio, USA) was utilized to analyze concentrations of the serum enzymes related to liver and kidney functions.
[3] = system: GS-9L, U-343MGa, HeLa, V79, and B16 cells; details: cited from earlier work
[4] = liver tumor-bearing SD rats, 25 mg B/kg bw one-shot i.v., n = 12
[5] = system: N1-S1 rat hepatoma liver tumor
Method: The implantation of tumor cells: before anesthesia, the SD rats were subcutaneously injected with 0.1 mg/kg bw of Atropine, so as to inhibit the secretion of respiratory tract and salivary gland caused by anesthetics, and prevent bradycardia resulted from the overactivity of vagus nerve. After administering Atropine for 10-15 minutes, the rats were intraperitoneally injected with 20-40 mg/kg bw of Zoletil 50 and 10 mg/kg bw of Xylazine to anesthetize and sedate the animals. After the anesthetia, the subxiphoid incision was done to allow for tumor implantation. A surgical area on the rat was shaved and disinfected with 75% alcohol and iodine, and then a 3-cm incision was made along the midline of thin layer; the muscle layer was elevated to make an opening smaller than the skin layer, and both sides of the rat's abdomen was gently pressed to reveal the liver. A 29 G syringe was loaded with the N1-S1 tumor cell suspension in advance, and then used to slowly inject the suspension into a hepatic lobe of the rat; each of the rats were injected with 6×10^6 cell/0.1 mL of the suspension. After the implantation, the peritoneum was stitched back with an absorbable suture, before using a nylon suture to stitch back the skin layer. The operated rats were then released back into the cage, and their activities and survival were continuously monitored.
A commercial ultrasound scanner (TOSHIBA Xario) was used to scan the liver tumors, and a linear probe (PLT-1204BT) was used because it imparts better resolution; the frequency of the scanning was set at 14 MHz. After the anesthesia, the experimental animals were subjected to B-mode ultrasound imaging, so as to confirm whether the induction and growth of the tumors. […] Sagittal sections and transverse sections were obtained for the experimental animals before the BNCT treatment, and on the 10th, 30th, 60th, and 80th day after the BNCT treatment, in order to estimate the size of the tumors, and also combined Doppler mode with 3D imaging to evaluate the distribution of vasculature in the tumors, as well as the relative position of the tumors in the abdominal cavities.
The experimental animals were divided into three groups; a normal group (which was made up of normal rats), a tumor comparison group (in which the rats received the implantation of tumor cells but not the BNCT treatment), and a BNCT treatment group; the BNCT treatment group was divided into subgroups of rats that received different physical doses of irradiation.
The rats implanted with the N1-S1 tumor cells were subjected to the BNCT treatment on the 17th day after the implantation. […] At 15 minutes before the irradiation, the rats were injected with Atropine and Zoletil to allow for longer anesthesia. Each of the rats were placed on a fixing frame with its tumor-bearing area close to the beam aperture of the Tsing Hua Open-pool Reactor (THOR), and then different duration of neutron irradiation was performed under a specific neutron flux, in order to acquire a specific irradiation dose. After the irradiation, an on-line neutron monitoring system for the THOR was used to confirm the actual irradiation dose.
The tumor was scanned by using a commercial ultrasound scanner (TOSHIBA Xario), and the scanning frequency was set at 14 MHz. […] Ultrasound imaging was used to track growths or disappearances of the tumors, as well as changes in the blood vessels surrounding the tumors within 80 days of the BNCT treatment. The 2D mode of ultrasound imaging was employed to confirm the status of a tumor, and sagittal and transverse sections were obtained to estimate the size of the tumor, and the Doppler mode was combined with 3D imaging to evaluate the distribution of vasculature in the tumor, as well as in surroundings thereof.

[6] = 4 hours after the injection
Method: Before measuring boron concentration of a sample, it needs to undergo microwave digestion first. A sample was initially placed into a Teflon high-pressure digestion vessel, then added with 3 mL of concentrated nitric acid (14N, 65%) and 0.5 mL of hydrogen peroxide (30-35%), and the vessel was sealed before placing the vessel into a microwave digestion system (MLS 1200 Milestone, Italia) for sample decomposition. […] The sample subsequently turned into a clear solution after complete digestion. After diluting the sample with deionized water, an Inductively Coupled Plasma Atomic Emission Spectrometer (ICP-AES, OPTIMA 2000 DV, PerkinElmer Instruments) was used to measure the boron concentration of the sample. For the conditions of the analysis, the temperature of argon plasma was set at 6000-7000 K; the analytical wavelength was set at 249.773 nm, and the liquid uptake rate was set at approximately 2 mL/min; the operating voltage after the formation of plasma was set at 40 V.

[7] = 4 days after the BNCT treatment
[8] = G2, day −1 (before BNCT, baseline)
[9] = G3, day −1 (before BNCT, baseline)

OB(O)O [boric acid]
adverse effect of injected boric acid [1]: no permanent adverse effect
histopathological section of the testis [2, 7]: did not show any abnormalities
change of GPT after the BNCT treatment ([2]; BNCT treatment group): returned to normal
change in BUN (kidney function) ([2]; BNCT treatment group, one month after the BNCT treatment): did not show any meaningful changes
clinical signs after BNCT ([2]; BNCT treatment groups): slight diarrhea and appetite loss
lowest body weight relative to the initial weight ([2]; G1 (11.18 Gy), 8 days after the irradiation): 78%
GOT (AST), serum ([2]; G1 (11.18 Gy), day −1 (before BNCT, baseline), normal 83-118): 250 ± 148 U/L
BUN, serum ([2]; G1, day 11 after BNCT): 15 ± 7 mg/dL
GOT (AST), serum ([2]; G1, day 11 after BNCT): 202 ± 127 U/L
GPT (ALT), serum ([2]; G1, day 11 after BNCT): 39 ± 13 U/L
BUN, serum ([2]; G1, day 30 after BNCT): 14 ± 1 mg/dL
GOT (AST), serum ([2]; G1, day 30 after BNCT): 111 ± 29 U/L
GPT (ALT), serum ([2]; G1, day 30 after BNCT): 50 ± 5 U/L
BUN, serum ([2]; G1, day 80 after BNCT): 17 ± 3 mg/dL
GOT (AST), serum ([2]; G1, day 80 after BNCT): 127 ± 8 U/L
GPT (ALT), serum ([2]; G1, day 80 after BNCT): 54 ± 4 U/L
BUN, serum ([2]; G1, day −1 (before BNCT, baseline), normal 11-17): 16 ± 2 mg/dL
GPT (ALT), serum ([2]; G1, day −1 (before BNCT, baseline), normal 35-47): 54 ± 7 U/L
lowest body weight relative to the initial weight ([2]; G2 (7.97 Gy), 4 days after the irradiation): 89%
GOT (AST), serum ([2]; G2 (7.97 Gy), day −1 (before BNCT, baseline)): 271 ± 39 U/L
BUN, serum ([2]; G2, day 11 after BNCT): 13 ± 2 mg/dL
GOT (AST), serum ([2]; G2, day 11 after BNCT): 204 ± 9 U/L
GPT (ALT), serum ([2]; G2, day 11 after BNCT): 45 ± 15 U/L
BUN, serum ([2]; G2, day 30 after BNCT): 17 ± 5 mg/dL
GOT (AST), serum ([2]; G2, day 30 after BNCT): 144 ± 20 U/L
GPT (ALT), serum ([2]; G2, day 30 after BNCT): 57 ± 3 U/L
BUN, serum ([2]; G2, day 80 after BNCT): 16 ± 2 mg/dL
GOT (AST), serum ([2]; G2, day 80 after BNCT): 116 ± 8 U/L
GPT (ALT), serum ([2]; G2, day 80 after BNCT): 62 ± 13 U/L
BUN, serum [2, 8]: 12 ± 1 mg/dL
GPT (ALT), serum [2, 8]: 56 ± 9 U/L
lowest body weight relative to the initial weight ([2]; G3 (5.61 Gy), 3 days after the irradiation): 92%
GOT (AST), serum ([2]; G3 (5.61 Gy), day −1 (before BNCT, baseline)): 168 ± 19 U/L
BUN, serum ([2]; G3, day 11 after BNCT): 15 ± 3 mg/dL
GOT (AST), serum ([2]; G3, day 11 after BNCT): 180 ± 8 U/L
GPT (ALT), serum ([2]; G3, day 11 after BNCT): 53 ± 4 U/L
BUN, serum ([2]; G3, day 30 after BNCT): 14 ± 3 mg/dL
GOT (AST), serum ([2]; G3, day 30 after BNCT): 153 ± 3 U/L
GPT (ALT), serum ([2]; G3, day 30 after BNCT): 55 ± 6 U/L
BUN, serum ([2]; G3, day 80 after BNCT): 18 ± 3 mg/dL
GOT (AST), serum ([2]; G3, day 80 after BNCT): 133 ± 41 U/L
GPT (ALT), serum ([2]; G3, day 80 after BNCT): 58 ± 12 U/L
BUN, serum [2, 9]: 13 ± 1 mg/dL
GPT (ALT), serum [2, 9]: 50 ± 10 U/L
change of liver enzyme GOT after the BNCT treatment ([2]; all three subgroups of the BNCT treatment group): decreased rapidly
radiation damage in pancreases and spleens, tissue histopathological sections ([2]; liver tumor-bearing rats after BNCT with 10B-boric acid): did not show radiation damage
radiation effect in the testis ([2]; one month after the BNCT irradiation, degree related to irradiation dose): atrophy of seminiferous tubules
testis effect ([2]; only rats that received 11.18 Gy (G1)): clear testicular atrophy
accumulation efficiency in the cells ([3]; previous studies): 1
ratio of boron concentrations intracellularly and extracellularly ([3]; simple or passive diffusion): 1
Cmax, highest drug concentration in blood [4]: 104.6 ± 36.23 ppm
reduction of tumor size ([5]; 30th day after BNCT treatment): approximately 90%
histopathology of tumor cells, high magnification [5, 7]: shrunk in size, become hollow, broken down and dead
tumor shrinkage ratio (ultrasound) ([5]; G1 (11.18 Gy), 30 days after BNCT): 0.94 ± 0.01
tumor shrinkage ratio (ultrasound) ([5]; G1 (11.18 Gy), 60 days after BNCT): 0.94 ± 0.02
tumor shrinkage ratio (ultrasound) ([5]; G1 (11.18 Gy), 80 days after BNCT): 0.95 ± 0.02
tumor shrinkage ratio (ultrasound) ([5]; G1 (tumor physical dose 11.18 Gy), boric acid 25 mg 10B/kg i.v., 11 days after BNCT, 0 = initial size, 1 = vanished): 0.64 ± 0.07
distribution of blood flow surrounding the tumor (Doppler imaging) ([5]; G1, G2 and G3, 8th, 12th, 18th day after BNCT): gradually decreased until it could no longer be detected
tumor shrinkage ratio (ultrasound) ([5]; G2 (7.97 Gy), 30 days after BNCT): 0.89 ± 0.05
tumor shrinkage ratio (ultrasound) ([5]; G2 (7.97 Gy), 60 days after BNCT): 0.86 ± 0.07
tumor shrinkage ratio (ultrasound) ([5]; G2 (7.97 Gy), 80 days after BNCT): 0.91 ± 0.05
tumor shrinkage ratio (ultrasound) ([5]; G2 (tumor physical dose 7.97 Gy), 11 days after BNCT): 0.62 ± 0.1
tumor shrinkage ratio (ultrasound) ([5]; G3 (5.61 Gy), 30 days after BNCT): 0.77 ± 0.06
tumor shrinkage ratio (ultrasound) ([5]; G3 (5.61 Gy), 60 days after BNCT): 0.83 ± 0.08
tumor shrinkage ratio (ultrasound) ([5]; G3 (5.61 Gy), 80 days after BNCT): 0.87 ± 0.04
tumor shrinkage ratio (ultrasound) ([5]; G3 (tumor physical dose 5.61 Gy), 11 days after BNCT): 0.48 ± 0.42
liver cancer in the rats after BNCT with 10B-boric acid ([5]; liver tumor-bearing rats): completely disappeared
smallest tumor, size relative to the original size ([5]; one month after the BNCT treatment): 6%
tumor size relative to the original tumor size ([5]; three subgroups G1-G3, one month after the BNCT treatment): less than or equal to 22%
new growth or recurrence of the tumors (ultrasound tracking) ([5]; up to 80 days after the BNCT treatment): did not reveal any new growth or recurrence of the tumors
difference between the boron concentrations in the tumors and the normal liver cells [6]: insignificant
